PMC5394417, “Investigating the molecular mechanism of positive and negative allosteric modulators in the calcium-sensing receptor dimer” (Scientific Reports, 2017)
pEC50: −log10 of the molar value.

Biological target: T1, HA-E297A CaSR mutant (Rattus norvegicus, UniProt P48442, E297A)
T1 construct: mGluR5 signal peptide (N); expressed in transfected cells; host or cells: HEK293T
T1 sequence (P48442 20-1079 E297A): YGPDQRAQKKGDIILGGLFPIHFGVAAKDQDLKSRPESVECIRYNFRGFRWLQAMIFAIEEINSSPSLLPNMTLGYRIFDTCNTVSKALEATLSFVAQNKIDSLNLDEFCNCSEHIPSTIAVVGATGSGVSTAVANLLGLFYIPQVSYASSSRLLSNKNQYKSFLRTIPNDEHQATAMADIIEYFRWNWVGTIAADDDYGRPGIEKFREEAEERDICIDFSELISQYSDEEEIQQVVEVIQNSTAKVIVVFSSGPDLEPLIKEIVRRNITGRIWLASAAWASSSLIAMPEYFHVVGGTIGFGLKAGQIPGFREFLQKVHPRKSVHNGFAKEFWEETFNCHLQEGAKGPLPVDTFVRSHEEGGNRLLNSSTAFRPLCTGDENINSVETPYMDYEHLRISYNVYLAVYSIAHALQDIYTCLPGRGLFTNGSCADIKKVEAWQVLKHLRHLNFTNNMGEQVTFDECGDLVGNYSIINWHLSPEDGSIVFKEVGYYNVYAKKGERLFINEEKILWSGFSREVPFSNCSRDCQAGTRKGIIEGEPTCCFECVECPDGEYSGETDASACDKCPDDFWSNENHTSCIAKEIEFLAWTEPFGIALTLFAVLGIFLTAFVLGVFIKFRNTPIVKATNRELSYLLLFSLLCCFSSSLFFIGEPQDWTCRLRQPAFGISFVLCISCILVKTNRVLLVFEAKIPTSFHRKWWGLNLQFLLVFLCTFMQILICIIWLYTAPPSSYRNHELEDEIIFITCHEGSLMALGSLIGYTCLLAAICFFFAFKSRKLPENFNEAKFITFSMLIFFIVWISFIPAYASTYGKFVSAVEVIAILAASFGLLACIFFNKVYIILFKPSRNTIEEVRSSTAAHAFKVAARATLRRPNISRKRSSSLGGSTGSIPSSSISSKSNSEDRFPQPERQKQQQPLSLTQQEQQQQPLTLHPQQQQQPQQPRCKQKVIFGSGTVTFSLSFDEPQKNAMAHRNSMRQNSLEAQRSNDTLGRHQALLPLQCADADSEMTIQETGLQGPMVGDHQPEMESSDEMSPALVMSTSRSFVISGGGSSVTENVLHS
Assay: IP-One assay, HEK293T transiently transfected
Assay type: cell-based
Protocol: Human embryonic kidney (HEK) 293T cells were cultured in DMEM supplemented with 10% dFBS and 1% P/S at 37 °C and 5% CO2. 48 h prior to assay, transient transfection was performed using Lipofectamine 2000 as the transfection reagent. White opaque 96-well culture plates (PerkinElmer, Waltham, MA, USA) were used for the ELISA and the TR-FRET dimerization assay, while clear tissue culture treated 96-well plates (Corning, Corning, NY, USA) were used for the IP-One assay. Both plate types were coated with poly-D-lysine before addition of cells and transfection mix. 0.25 μl/well of Lipofectamine 2000 were diluted in 25 μl/well of Opti-MEM and incubated at room temperature (RT) for 5 min. 0.03 μg/well of DNA was diluted in 25 μl/well of Opti-MEM, and subsequently mixed with the Lipofectamine 2000 dilution and incubated 20 min at RT before addition to the plates. Cell suspensions of 170.000 HEK293T cells/mL were prepared in complete growth medium and 100 μl/well (17.000 cells/well) was added to the plates, which were incubated for 48 h at 37 °C and 5% CO2 before performing assays.
Functional activity was measured using the IP-One assay, which is an IP1 accumulation assay. For agonist testing, ligands were prepared in final concentrations in ligand buffer (HBSS, 20 mM HEPES, pH 7.4 supplemented with 20 mM LiCl). Cells were washed once with 100 μl/well of assay buffer (HBSS, 20 mM HEPES, pH 7.4) and 50 μl/well of agonist solution was added after which plates were incubated at 37 °C for 30 min. Subsequently, ligand solutions were removed and cells were washed with 100 μl/well of assay buffer. Cell lysis was performed by addition of 30 μl/well of IP-One Conjugate & Lysis Buffer (Cisbio Bioassays, Codolet, France) and plates were incubated at RT for 30 min. Afterwards, 30 μl/well of assay buffer was added to dilute the cell lysate. 10 μl/well of cell lysate was transferred from the 96-well plate to a 384-well Optiplate and 10 μl/well of detection solution (Assay buffer + 2.5% of anti-IP1 antibody cryptate Terbium conjugate + 2.5% IP1-d2 conjugate (Cisbio Bioassays, Codolet, France)) was also added. The 384-well plate was incubated for 1 h at RT in dark before being measured on an EnVision plate reader (PerkinElmer, Waltham, MA, USA). Upon excitation at 340 nm, emission at 615 nm and 665 nm was measured, and the FRET ratio (665 nm/615 nm) was converted to IP1 concentrations by interpolating values from an IP1 standard curve generated from a provided IP1 calibrator (Cisbio Bioassays, Codolet, France). When testing allosteric modulators, cells were pre-incubated for 30 min at 37 °C with 50 μl/well of ligand buffer supplemented with allosteric modulator and a final concentration of 1% DMSO. Afterwards, the buffer solution was removed and 50 μl/well of agonist solution in ligand buffer supplemented with allosteric modulator and a final concentration of 1% DMSO was added. Plates were incubated for 30 min at 37 °C followed by one wash in 100 μl/well of assay buffer. Cell lysis and detection was performed as described above.

pEC50 (Ca^2+ alone): 2.13
Hill coefficient ± S.E.M. (Ca^2+ alone): 3.01 ± 0.07
Max ± S.E.M. (normalized to maximum response of WT CaSR): 130 ± 25%
SMILES: [Ca+2] [Ca^2+]
